Source: patent publication US20230203096A1, “EPHA4 TARGETING COMPOUNDS AND METHODS OF USE THEREOF” (priority 2020, published 2023)
Where two headings read alike, the source gives them in different places. Square brackets hold non-standard residues; d marks the D form. Peptide text beside a SMILES is read from it. * marks the point of attachment. Phe(4-(2-MeO-Ph)) = COc1ccccc1-c1ccc(C[C@H](N)C(=O)O)cc1; Cyclohexanoyl(1S,3S-3-NH2) = N[C@H]1CCC[C@H](C(=O)*)C1; Trp(5-OMe) = COc1ccc2[nH]cc(C[C@H](N)C(=O)O)c2c1; Trp(5-OH) = N[C@@H](Cc1c[nH]c2ccc(O)cc12)C(=O)O; NHPh(4-CH2-morpholino) = c1cc(N*)ccc1CN1CCOCC1; NH(4-morpholinophenyl) = c1cc(N2CCOCC2)ccc1N*; Bip = N[C@@H](Cc1ccc(-c2ccccc2)cc1)C(=O)O; hArg = N=C(N)NCCCC[C@H](N)C(=O)O; X2 = Fc1cc(N*)ccc1N1CCOCC1; X3 = c1cc(N2CCNCC2)ccc1N*

Key:
Aqueous solubility = format: physicochemical
[1] = molecular target: T1, ^13C^ε-Met-labeled EphA4-LBD (Homo sapiens, UniProt P54764, C204A); experiment: 2D [13C,1H] HSQC NMR chemical shift perturbation of Met resonances; format: binding; conditions: for Δδ ^13C^ϵ/^1H^ϵ Met 164: protein 20 μM, 20 μM of each compound; for Δδ Met 60 / Δδ Met 115 / Δδ Met 164: test ligands at 40 μM, EphA4-LDB at 20 μM, Table 8
T1 construct: His tag (N); made in house; host or cells: E. coli Rosetta-Gami B(DE3), pET15b
Procedure: Peptides were synthesized by using standard solid-phase synthesis protocol, using the BAL resin as anchoring for the C-terminal amines. Isothermal Titration Calorimetry (ITC) measurements were performed in a reverse fashion by titrating the protein into the ligand solution. Solution nuclear magnetic resonance (NMR) experiments were conducted on a 700 MHz Bruker Avance spectrometer equipped with a TCI cryoprobe. […]
2D [^13C,^1H] correlation NMR spectra measured with such protein targets, collected in absence or presence of test ligands can be used to monitor ligand binding and make, albeit qualitative, determinations on possible conformational changes induced by test ligands on the protein target. […] In targeting EphA4, an important aspect regarding the activity of its ligands is whether these agents could be predicted to work as antagonists or agonists.
NMR spectra were acquired on Bruker Avance III 700 MHz spectrometer equipped with a TCI cryoprobe. All NMR data were processed and analyzed using TOPSPIN 3.6.1 (Bruker, Billerica, Mass., USA).
Chemical shift changes (A) in the 2D [^13C, ^1H] spectra were calculated as weight average perturbations observed in the ^1H and ^13C dimensions using the following Equation: […]

[2] = molecular target: T2, recombinant EphA4 ligand binding domain (Homo sapiens, UniProt P54764, C204A); experiment: Isothermal titration calorimetry (ITC) against EphA4-LBD
T2 construct: His tag (N); made in house; host or cells: E. coli Rosetta-Gami B(DE3), pET15b
Procedure: Peptides were synthesized by using standard solid-phase synthesis protocol, using the BAL resin as anchoring for the C-terminal amines. Isothermal Titration Calorimetry (ITC) measurements were performed in a reverse fashion by titrating the protein into the ligand solution. Solution nuclear magnetic resonance (NMR) experiments were conducted on a 700 MHz Bruker Avance spectrometer equipped with a TCI cryoprobe. Each protein sample was dissolved into an NMR tube at a final concentration of 20 μM (1% DMSO-d6) in the presence of 20 μM of each compound.
The fragments were transformed into Rosetta-Gami B(DE3) competent cells and grown in LB medium at 37° C. with 100 μg/mL of ampicillin until reaching an OD600 of 0.6-0.7 followed by induction with 0.4 mM IPTG overnight at 20° C. Bacteria were then collected by centrifugation and lysed by sonication at 4° C. […] EphA4 LBD with ^13C^ε/^1H^ε-Met labeled was expressed like previously described but adding a suspension of 100 mg of ^13C^ε/^1H^ε-Methionine in 1 mL of DMSO per liter of LB medium, 10 minutes before induction. […] Transformation, expression, and purification of EphA3-LBD chimera was performed as described above for EphA4-LBD.
Isothermal titration calorimetry (ITC) measurements were performed using the Affinity ITC Autosampler from TA Instruments (New Castle, Del.). The titrations were performed in a reverse fashion by titrating the protein into the ligand solution. […] The syringe was filled with a 100 μM solution of EphA4-LBD, EphA3-LBD Chimera, or EphA2-LBD, and 20 injections of 2.5 μL each were performed into the cell containing a 20 μM solution of the compounds. The injections were made at 200 s or 400 s intervals with a stirring speed of 75 rpm. All the solutions were kept in the autosampler at 4° C. The analysis of the thermodynamics signatures and for dissociation constant determination was performed by the NanoAnalyze software (TA Instruments, New Castle, Del.) and subsequently exported into Microsoft Excel.

[3] = tested on: SOD1(G93A) transgenic mice; conditions: SOD1(G93A) models, literature; cited from earlier work
EphA4 = conditions: reported previously; cited from earlier work
[4] = tested on: mouse motor neurons co-cultured with iAstrocytes derived from sALS patients; experiment: Co-culture of sALS patient derived iAstrocytes and motor neurons (motor neuron survival); format: cell-based; conditions: 100 μM
Text: EphA4 has been directly implicated in the progression of ALS in mice models and in human genetic studies. While the mechanisms for onset and progression of ALS remain largely undetermined, astrocytes have been implicated as significant contributors to motor neuron death in both in familial ALS (fALS), that is driven by inactivating mutations within the superoxide dismutase 1 (SOD1) gene and that account for less than 2% of all ALS cases, (Di Giorgio et al., Nat Neurosci, 10 (5): 608-614, (2007); Nagai et al., Nat Neurosci, 10 (5): 615-622, (2007); Yamanaka et al., Nat Neurosci, 11 (3): 251-253, (2008)) and the more common sporadic form of ALS (sALS). […] Recently, it was shown that astrocytes derived from both patient groups are similarly toxic to motor neurons (Haidet-Phillips et al., Nat Biotechnol, 29 (9): 824-828, (2011)).
Induced Astrocytes were generated by seeding a low quantity of NPCs into astrocyte medium (DMEM media containing 10% FBS and 0.2% N2) for five days. Following differentiation, iAstrocytes were lifted and seeded into a 96 well (10,000 cells per well).
Cells are sorted through a 100 micron tip with sheath pressure of 27. GFP+ motor neurons were seeded in a 96 well plate (10,000 cells per well). Co-cultures were imaged with InCell for up to three days. Motor neurons with neurite outgrowth of greater than 50 um were counted as alive.

[5] = ITC with the ligand binding domain, Table 8, read-out: Kd (nM) vs EphA4

T2 sequence (P54764 29-209 C204A): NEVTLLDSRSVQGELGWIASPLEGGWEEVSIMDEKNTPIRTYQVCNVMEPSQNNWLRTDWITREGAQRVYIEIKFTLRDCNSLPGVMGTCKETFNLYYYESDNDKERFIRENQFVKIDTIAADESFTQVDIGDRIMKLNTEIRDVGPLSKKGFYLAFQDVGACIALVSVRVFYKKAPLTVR
T1 sequence (P54764 29-209 C204A): as above

Row | SMILES | Aqueous Solubility (Aqueous solubility) [mM] | Δδ ^13C^ϵ/^1H^ϵ Met 164 [1] | Δδ Met 60 [1] | Δδ Met 115 [1] | Δδ Met 164 [1] | Kd [2] [nM] | Kd [2, 5] [nM] | -TΔS ([2]; ITC, EphA4-LBD) [kcal/mol] | AH ([2]; ITC, EphA4-LBD) [kcal/mol] | Kd ([2]; ITC, EphA4-LBD, read-out: Kd (nM)- ITC) [nM] | disease onset / survival [3] | agonistic activity for EphA4 in primary cortical neurons (EphA4) | protection of motor neurons from sALS astrocytes-induced death [4]
1 | COc1ccccc1-c1ccc(C[C@H](NC(=O)[C@H](Cc2c[nH]c3ccc(O)cc23)NC(=O)[C@H]2CCC[C@H](N)C2)C(=O)N[C@@H](CCCCNC(=N)N)C(=O)NCC(=O)Nc2ccc(CN3CCOCC3)cc2)cc1 [Compound 2, (1S,3S)-3-amino-N—((S)-1-(((S)-1-(((S)-6-guanidino-1-((2-((4-(morpholinomethyl)phenyl)amino)-2-oxoethyl)amino)-1-oxohexan-2-yl)amino)-3-(2′-methoxy-[1,1′-biphenyl]-4-yl)-1-oxopropan-2-yl)amino)-3-(5-hydroxy-1H-indol-3-yl)-1-oxopropan-2-yl)cyclohexane-1-carboxamide] ({Cyclohexanoyl(1S,3S-3-NH2)}-[Trp(5-OH)][Phe(4-(2-MeO-Ph))][hArg]G-{NHPh(4-CH2-morpholino)}) | >50 | + (0< + <0.1 ppm) | ++ (0.1 ppm < ++ <0.2 ppm) | + (0< + <0.1 ppm) | + (0< + <0.1 ppm) | 75 | 77 | -0.97 | -8.74 | – | – | – | –
2 | COc1ccccc1-c1ccc(C[C@H](NC(=O)[C@H](Cc2c[nH]c3ccc(O)cc23)NC(=O)[C@H]2CCC[C@H](N)C2)C(=O)N[C@@H](CCCCNC(=N)N)C(=O)NCC(=O)Nc2ccc(N3CCOCC3)cc2)cc1 [Compound 3, (1S,3S)-3-amino-N—((S)-1-(((S)-1-(((S)-6-guanidino-1-((2-((4-morpholinophenyl)amino)-2-oxoethyl)amino)-1-oxohexan-2-yl)amino)-3-(2′-methoxy-[1,1′-biphenyl]-4-yl)-1-oxopropan-2-yl)amino)-3-(5-hydroxy-1H-indol-3-yl)-1-oxopropan-2-yl)cyclohexane-1-carboxamide] ({Cyclohexanoyl(1S,3S-3-NH2)}-[Trp(5-OH)][Phe(4-(2-MeO-Ph))][hArg]G-{NH(4-morpholinophenyl)}) | >50 | + (0< + <0.1 ppm) | + (0< + <0.1 ppm) | + (0< + <0.1 ppm) | + (0< + <0.1 ppm) | – | – | -0.60 | -8.92 | 106 | – | – | –
3 | COc1ccc2[nH]cc(C[C@H](NC(=O)[C@H]3CCC[C@H](N)C3)C(=O)N[C@@H](Cc3ccc(-c4ccccc4)cc3)C(=O)N[C@@H](CCCCNC(=N)N)C(=O)NCC(=O)Nc3ccc(CN4CCOCC4)cc3)c2c1 [Compound 4] ({Cyclohexanoyl(1S,3S-3-NH2)}-[Trp(5-OMe)][Bip][hArg]G-{NHPh(4-CH2-morpholino)}) | – | +++ (0.2< +++ <0.25) | – | – | – | 100 | – | -3.57 | -5.99 | – | – | – | –
4 | COc1ccc2[nH]cc(C[C@H](NC(=O)[C@H]3CCC[C@H](N)C3)C(=O)N[C@@H](Cc3ccc(-c4ccccc4OC)cc3)C(=O)N[C@@H](CCCCNC(=N)N)C(=O)NCC(=O)Nc3ccc(CN4CCOCC4)cc3)c2c1 [Compound 5] ({Cyclohexanoyl(1S,3S-3-NH2)}-[Trp(5-OMe)][Phe(4-(2-MeO-Ph))][hArg]G-{NHPh(4-CH2-morpholino)}) | – | ++ (0.1 ppm < ++ < 0.2 ppm) | – | – | – | 163 | – | -2.25 | -7.00 | – | – | – | –
5 | N=C(N)NCCCC[C@H](NC(=O)[C@H](Cc1ccc(-c2ccccc2)cc1)NC(=O)[C@H](Cc1c[nH]c2ccc(O)cc12)NC(=O)[C@H]1CCC[C@H](N)C1)C(=O)NCC(=O)Nc1ccc(CN2CCOCC2)cc1 [Compound 9, (1S,3S)—N—((S)-1-(((S)-3-([1,1′-biphenyl]-4-yl)-1-(((S)-6-guanidino-1-((2-((4-(morpholinomethyl)phenyl)amino)-2-oxoethyl)amino)-1-oxohexan-2-yl)amino)-1-oxopropan-2-yl)amino)-3-(5-hydroxy-1H-indol-3-yl)-1-oxopropan-2-yl)-3-aminocyclohexane-1-carboxamide] ({Cyclohexanoyl(1S,3S-3-NH2)}-[Trp(5-OH)][Bip][hArg]G-{NHPh(4-CH2-morpholino)}) | >50 | +++ (0.2< +++ <0.25) | ++ (0.1 ppm < ++ <0.2 ppm) | + (0< + <0.1 ppm) | +++ (0.2< +++ <0.25) | – | 144 | -1.90 | -7.44 | – | – | – | –
6 | N=C(N)NCCCC[C@H](NC(=O)[C@H](Cc1ccc(-c2ccccc2)cc1)NC(=O)[C@H](Cc1c[nH]c2ccc(O)cc12)NC(=O)[C@H]1CCC[C@H](N)C1)C(=O)NCC(=O)Nc1ccc(N2CCNCC2)cc1 [Compound 10] ({Cyclohexanoyl(1S,3S-3-NH2)}-[Trp(5-OH)][Bip][hArg]G-X3) | – | ++++ (++++ >0.25 ppm) | – | – | – | 90 | – | -1.35 | -8.27 | – | – | – | –
7 | COc1ccccc1-c1ccc(C[C@H](NC(=O)[C@H](Cc2c[nH]c3ccc(O)cc23)NC(=O)[C@H]2CCC[C@H](N)C2)C(=O)N[C@@H](CCCCNC(=N)N)C(=O)NCC(=O)Nc2ccc(N3CCOCC3)c(F)c2)cc1 [Compound 16] ({Cyclohexanoyl(1S,3S-3-NH2)}-[Trp(5-OH)][Phe(4-(2-MeO-Ph))][hArg]G-X2) | – | + (0< + <0.1 ppm) | – | – | – | 127 | – | 0.58 | -10.00 | – | – | – | –
8 | COc1ccc2[nH]cc(CCNC(=O)[C@H](Cc3ccncc3)NC(=O)[C@H](Cc3ccc(Cl)cc3)NC(=O)[C@H](Cc3c[nH]c4ccc(O)cc34)NC(=O)CCCN)c2c1 [Compound 123C4, reference compound] | – | – | + (0< + <0.1 ppm) | + (0< + <0.1 ppm) | ++ (0.1 ppm < ++ <0.2 ppm) | – | – | – | – | – | significantly prolonged survival | induced receptor phosphorylation and growth cone collapse | to a lesser extent, 123C4 (at a higher concentration) were able to protect mouse motor neurons
